The record followed here is patent US12606541B2, “PPARg modulators and methods of use” (Eisai R&D Management Co., Ltd., priority 2020, dated 2026).

Assay [1] has as its system UM-UC-9 engineered cells. The experiment in a line: Cell proliferation / short-term viability assay, CellTiter-Glo 144 h. It is filed as cell-based, human. The following applies: read-out: CTGlo 144 h UMUC9.5, G150. As for the experimental part:
Cell Seeding for Proliferation Assay
UM-UC-9 engineered cells were cultured in Dulbecco's Modified Eagle Medium (DMEM) supplemented with 10% FBS, 25 mM glucose (high glucose), 4.0 mM L-glutamine, 2.0 mM GlutaMAX™, 1.0 mM pyruvate, 1.0% non-essential amino acids (NEAA) in a 95% humidified incubator at 37° C. with 5% CO2. Cell banks of UM-UC-9 engineered assay-ready cells (ARCs) were prepared from a very active growth stage. Vials of ARCs containing approximately 5×10^6 cells per vial were stored in liquid nitrogen vapor phase cryostorage until use.
For making assay plates, ARCs were recovered from cryostorage, strained in a […] cell strainer, verified for cell viability >90% and counted using a cell counter (Cellometer Auto 1000, Nexelom). Each cell line was seeded into 384-well plates (50 μl/well) using DMEM medium at a density previously determined to be in log growth phase 7 days post-seeding (500 cells/well) using a bulk reagent dispenser (Multidrop™ Combi, Thermo Scientific) with a large-bore plastic-tip cassette pre-sanitized with 70% ethanol. One plate of cells was designated as the pretreatment time-zero (T0) control. Freshly seeded plates were allowed to sit lidded for 30 minutes within a biosafety cabinet for cells to settle distributed within the plate wells uniformly and then placed into an automated incubator (STX110, Liconic) at 37° C., 5% CO2, and 95% relative humidity.
Preparation of Test Compound in Assay-Ready Plate
Compounds were stored in a low-temperature sample archive as 10 mM dimethyl sulfoxide (DMSO) solutions at −20° C. under reduced humidity (−45° C. dew point) and protected from light. All samples in the automated archive are stored in 2D barcoded polypropylene tubes, tracked through a laboratory information management system (LIMS), and have been verified for identity and purity by NMR (Chemistry, H3 Biomedicine) and by LCMS (Analytical Chemistry, H3 Biomedicine) at the time of sample registration. Identity by mass matching and purity are again verified at the time of sample request fulfillment by redundant LCMS methods (acidic and basic separation protocols; Analytical Chemistry, H3 Biomedicine). Samples retrieved from low-temperature archive storage were solubilized by heated sonication (Bransonic® Ultrasonic Bath, Branson), transferred (Microlab Starlet, Hamilton) and serially-diluted (Viaflo Assist, Integra) by low-volume liquid handlers, and tracked in LIMS by automation log files to create a ID barcoded master dose-response plate (MDR) to serve as a standard source for all assay-ready plates (ARP) used within an experiment. ARPs prepared by acoustic transfer (ATS-100, EDC) of nL volumes from the MDR source were heat-sealed (PlateLoc, Agilent) and stored at −20° C. prior to use (<7 days from production). Tracking of liquid transfers via acoustic dispenser log files were used to update the LIMS system for all ARP plate maps.
Measurement of Pretreatment Control Cells and Sample Anti-Proliferative Effects on Treated Cells
On day 0 (pretreatment cells) or day 7 (treated cells), a cell proliferation assay was performed using an automated robotic assay platform (ACell, High-Res Biosolutions). Cell ARP's were removed from incubation, their plate lid discarded, and using a bulk reagent dispenser (Multidrop™ Combi, Thermo Scientific with a small-bore metal-tip cassette) 25 μL (1/2 volume) of Cell Titer-Glo® 2.0 Cell Viability Assay reagent (Promega) was added to wells of columns 1-23 (column 24 will be used as plate background or positive control). Cell ARP's were incubated at room temperature in an automation hotel position for a total of 1.0 minute while the next plate was delivered to the bulk reagent dispenser and then lid-free cell ARP's were returned to incubate at 37° C. for 2.5 hours. […]

Assay [2] addresses T1, His6-TEV-PPARγ-(234-505) (Homo sapiens, UniProt P37231).
T1 construct: The His6-TEV-PPARγ-(234-505) protein for assay was expressed and purified; TEV cleavage site (N); made in house
T1 sequence (P37231 234-505): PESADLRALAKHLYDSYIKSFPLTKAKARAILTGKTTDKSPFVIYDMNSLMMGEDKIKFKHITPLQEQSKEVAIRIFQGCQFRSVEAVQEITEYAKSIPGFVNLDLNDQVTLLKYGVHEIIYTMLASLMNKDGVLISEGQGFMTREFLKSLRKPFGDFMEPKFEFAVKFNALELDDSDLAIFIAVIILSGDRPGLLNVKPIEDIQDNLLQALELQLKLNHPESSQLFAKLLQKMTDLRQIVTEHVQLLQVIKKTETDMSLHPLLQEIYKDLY
Kind of assay: TR-FRET Assay to Measure Co-R Peptide Recruitment to PPARγ. It is filed as biochemical. The following applies: Co-R peptide (SMRT-ID2) recruitment; top final concentration 20 μM; read-out: TR-FRET i-Ag; AC50. A digest of the protocol: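 His-tagged PPARγ (or controls) was preincubated with compound for 20 minutes at room temperature, then 5 nM anti-His terbium antibody and 200 nM FITC-labeled SMRT-ID2 corepressor peptide (final) were added for a further hour. TR-FRET signal was normalized to percent response using 500 nM T0070907 and DMSO controls.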

Read-outs that look alike come from different tables or passages of the source.

Consider `COc1cc(-c2[nH]nc(C(=O)N3CCC(C(=O)NC4CCC(C)CC4)CC3)c2Cl)ccn1` (mixture of isomers) [Example 110, 1-[4-chloro-5-(2-methoxypyridin-4-yl)-1H-pyrazole-3-carbonyl]-N-[(1s,4s)-4-methylcyclohexyl]piperidine-4-carboxamide and 1-[4-chloro-5-(2-methoxypyridin-4-yl)-1H-pyrazole-3-carbonyl]-N-[(1r,4r)-4-methylcyclohexyl]piperidine-4-carboxamide], for which the IC50 in assay [1] is 1210 nM. In addition, the AC50 in assay [2] came out at 575 nM.

As to `COc1cc(-c2cc(C(=O)N3CCC(C(=O)NC4CCC(C)CC4)CC3)n[nH]2)c(F)cn1` (mixture of isomers) [Example 114, 1-(5-(5-fluoro-2-methoxypyridin-4-yl)-1H-pyrazole-3-carbonyl)-N-((1s,4s)-4-methylcyclohexyl)piperidine-4-carboxamide and 1-(5-(5-fluoro-2-methoxypyridin-4-yl)-1H-pyrazole-3-carbonyl)-N-((1r,4r)-4-methylcyclohexyl)piperidine-4-carboxamide], the IC50 in assay [1] was found to be 120 nM. In addition, in assay [2], the AC50 is 78.5 nM.

Take `COc1cc(-c2cc(C(=O)N3CCC(C(=O)NC4COC(C)OC4)CC3)n[nH]2)c(Cl)cn1` (mixture of isomers) [Example 121, 1-[5-(5-Chloro-2-methoxypyridin-4-yl)-1H-pyrazole-3-carbonyl]-N-(2-methyl-1,3-dioxan-5-yl) piperidine-4-carboxamide]: the IC50 in assay [1] (Homo sapiens, UM-UC-9, 144 h) turned out to be 2220 nM. For the same compound, the AC50 in assay [2] amounted to 807 nM.

As for `COc1cc(-c2cc(C(=O)N3CCC(C(=O)NC4CCC(O)(C(F)(F)F)CC4)CC3)n[nH]2)c(Cl)cn1` (mixture of isomers) [Example 144, 1-(5-(5-chloro-2-methoxypyridin-4-yl)-1H-pyrazole-3-carbonyl)-N-(4-hydroxy-4-(trifluoromethyl)cyclohexyl)piperidine-4-carboxamide], the IC50 in assay [1] (Homo sapiens, UM-UC-9, 144 h) amounted to 334 nM. Besides, the AC50 in assay [2] is 44.7 nM.

Take `COc1cc(-c2cc(C(=O)N3CCC(C(=O)NCC4CC(OC)C4)CC3)n[nH]2)c(Cl)cn1` (mixture of isomers) [Example 145, 1-(5-(5-chloro-2-methoxypyridin-4-yl)-1H-pyrazole-3-carbonyl)-N-((3-methoxycyclobutyl)methyl)piperidine-4-carboxamide]: the IC50 in assay [1] (Homo sapiens, UM-UC-9, 144 h) worked out at 4120 nM. In addition, the AC50 in assay [2] came to 688 nM.

On to `COc1cc(-c2cc(C(=O)N3CCC(C(=O)NC4CC(C)CC(C)(C)C4)CC3)n[nH]2)c(Cl)cn1` (mixture of isomers) [Example 150, 1-(5-(5-chloro-2-methoxypyridin-4-yl)-1H-pyrazole-3-carbonyl)-N-(3,3,5-trimethylcyclohexyl)piperidine-4-carboxamide], for which, in assay [1] (Homo sapiens, UM-UC-9, 144 h), the IC50 stood at 779 nM. Besides, the AC50 in assay [2] was found to be 269 nM.

Turning to `COc1cc(-c2cc(C(=O)N3CCC(C(=O)NC4(C)CCC(C)CC4)CC3)n[nH]2)c(Cl)cn1` (mixture of isomers) [Example 163, 1-(5-(5-chloro-2-methoxypyridin-4-yl)-1H-pyrazole-3-carbonyl)-N (1,4-dimethylcyclohexyl)piperidine-4-carboxamide], the IC50 in assay [1] (Homo sapiens, UM-UC-9, 144 h) turned out to be 747 nM. Further, the AC50 in assay [2] came out at 447 nM.

Regarding `COc1cc(-c2cc(C(=O)N3CCC(C(=O)NC4[C@@H]5CCC[C@H]4CC5)CC3)n[nH]2)c(F)cn1` (mixture of isomers) [Example 165, N-(bicyclo[3.2.1]octan-8-yl)-1-(5-(5-fluoro-2-methoxypyridin-4-yl)-1H-pyrazole-3-carbonyl)piperidine-4-carboxamide], in assay [1] (Homo sapiens, UM-UC-9, 144 h), the IC50 is 435 nM. For the same compound, the AC50 in assay [2] stood at 179 nM.

With `COc1cc(-c2cc(C(=O)N3CCC(C(=O)NC4CCC(O)(C(F)(F)F)CC4)CC34CC4)n[nH]2)c(F)cn1` (mixture of isomers) [Example 169, (R)-4-(5-(5-fluoro-2-methoxypyridin-4-yl)-1H-pyrazole-3-carbonyl)-N-((1r,4R)-4-hydroxy-4-(trifluoromethyl)cyclohexyl)-4-azaspiro[2.5]octane-7-carboxamide and (S)-4-(5-(5-fluoro-2-methoxypyridin-4-yl)-1H-pyrazole-3-carbonyl)-N-((1r,4S)-4-hydroxy-4-(trifluoromethyl)cyclohexyl)-4-azaspiro[2.5]octane-7-carboxamide], the IC50 in assay [1] is 2.1 nM. The AC50 in assay [2] was 4.5 nM.

Regarding `COc1cc(-c2cc(C(=O)N3CCC(C(=O)NCc4cccc(Cl)c4)CC3C)n[nH]2)c(Cl)cn1` (mixture of isomers) [Example 172, 1-(5-(5-chloro-2-methoxypyridin-4-yl)-1H-pyrazole-3-carbonyl)-N-(3-chlorobenzyl)-2-methylpiperidine-4-carboxamide], the IC50 in assay [1] (Homo sapiens, UM-UC-9, 144 h) was determined as 163 nM. Also, the AC50 in assay [2] is 16.5 nM.

For `COc1cc(-c2cc(C(=O)N3CCC(C(=O)NCc4cccc(Cl)c4)C(C)C3)n[nH]2)c(Cl)cn1` (mixture of isomers) [Example 173, 1-(5-(5-chloro-2-methoxypyridin-4-yl)-1H-pyrazole-3-carbonyl)-N-(3-chlorobenzyl)-3-methylpiperidine-4-carboxamide], the IC50 in assay [1] (Homo sapiens, UM-UC-9, 144 h) was 2100 nM. Further, the AC50 in assay [2] turned out to be 674 nM.

In the case of `COc1cc(-c2cc(C(=O)N3CCC(C(=O)NCc4cccc(Cl)c4)C(F)C3)n[nH]2)c(Cl)cn1` (mixture of isomers) [Example 177, 1-(5-(5-chloro-2-methoxypyridin-4-yl)-1H-pyrazole-3-carbonyl)-N-(3-chlorobenzyl)-3-fluoropiperidine-4-carboxamide], in assay [1] (Homo sapiens, UM-UC-9, 144 h), the IC50 came to 68.9 nM. Also, the AC50 in assay [2] was found to be 29.8 nM.

Take `COc1cc(-c2cc(C(=O)N3CCC(C(=O)NC4CC(C)(F)C4)CC3)n[nH]2)c(Cl)cn1` (mixture of isomers) [Example 246, 1-(5-(5-chloro-2-methoxypyridin-4-yl)-1H-pyrazole-3-carbonyl)-N-(3-fluoro-3-methylcyclobutyl)piperidine-4-carboxamide]: in assay [1] (Homo sapiens, UM-UC-9, 144 h), the IC50 turned out to be 1230 nM. Further, in assay [2], the AC50 came out at 383 nM.

As for `COc1cc(-c2cc(C(=O)N3CCC(C(=O)NC4COC(C)C4)CC3)n[nH]2)c(Cl)cn1` (mixture of isomers) [Example 247, 1-(5-(5-chloro-2-methoxypyridin-4-yl)-1H-pyrazole-3-carbonyl)-N-(5-methyltetrahydrofuran-3-yl)piperidine-4-carboxamide], the IC50 in assay [1] (Homo sapiens, UM-UC-9, 144 h) came to 2230 nM. Besides, the AC50 in assay [2] stood at 565 nM.

As for `COc1cc(-c2cc(C(=O)N3CCC(C(=O)NC4c5ccccc5OCC4OC)CC3)n[nH]2)c(Cl)cn1` (mixture of isomers) [Example 252, 1-(5-(5-chloro-2-methoxypyridin-4-yl)-1H-pyrazole-3-carbonyl)-N-(3-methoxychroman-4-yl)piperidine-4-carboxamide], in assay [1] (Homo sapiens, UM-UC-9, 144 h), the IC50 was 1150 nM. In addition, the AC50 in assay [2] was determined as 182 nM.
